From PubChem BioAssay AID493223 (Johns Hopkins Ion Channel Center, 2011)
Active and inactive are the calls of the source.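 Rule for the calls: active = compound that raises the TRPC4 channel signal at some tested dose, with a fitted concentration curve; inactive = the rest.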

Each molecule was assayed against Transient receptor potential cation channel C4 (TRPC4), mouse (assay: TRPC4 positive allosteric modulators, dose response, cell-based, HEK293 TRPC4, Fluo-4 calcium flux (AID 493223)). Details: HEK293 TRPC4 cells, Fluo-4 calcium fluorescence ratio.

SMILES	EC50 [µM]
CN(C)CCN(C)Cc1cc(Br)ccc1O	1.78
CCN1CCN(Cc2cc(Br)ccc2O)CC1	0.86

Same assay, conditions: HEK293 TRPC4 cells, Fluo-4 calcium fluorescence ratio; at 20 µM (top of the series)

SMILES	fluorescence ratio, higher = potentiation
Oc1ccc(F)cc1CN1CCN(c2ccc(F)cc2F)CC1	inactive
Oc1ccc(Br)cc1CN1CCCCC1	inactive
CN(C)CCN(C)Cc1cc(F)ccc1O	inactive
Oc1ccc(Cl)cc1CN1CCC(N2CCOCC2)CC1	inactive
Oc1ccc(F)cc1CN1CCC(N2CCOCC2)CC1	inactive
COc1ccc(N2CCN(Cc3cc(Cl)ccc3O)CC2)cc1	inactive
CN1CCN(Cc2cc(Cl)ccc2O)CC1	inactive
Oc1ccc(F)cc1CN1CCCC1	inactive
Oc1ccc(Cl)cc1CN1CCN(c2ccccn2)CC1	inactive
COCCN(C)Cc1cc(Cl)ccc1O	inactive
Oc1ccc(F)cc1CN1CCN(c2ccccn2)CC1	inactive
Oc1ccc(Cl)cc1CN1CCOc2ccccc21	inactive
COCCN(C)Cc1cc(F)ccc1O	inactive
Oc1ccc(F)cc1CN1CCOc2ccccc21	inactive
CC1CC(C)CN(Cc2cc(F)ccc2O)C1 (stereo not drawn)	inactive
CC1CCN(Cc2cc(Br)ccc2O)CC1	inactive
Oc1ccc(Cl)cc1CN1CCCCC1	inactive
Oc1ccc(Cl)cc1CN1CCN(CC2CCCO2)CC1 (stereo not drawn)	inactive
Oc1ccc(F)cc1CN1CCCCC1	inactive
Oc1ccc(Cl)cc1CN1CCN(c2ccc(F)cc2F)CC1	inactive
Oc1ccc(Br)cc1CN1CCOc2ccccc21	inactive
Oc1ccc(Cl)cc1CN1CCN(c2ccncc2)CC1	inactive
Oc1ccc(F)cc1CN1CCN(c2ccncc2)CC1	inactive
CC1CC(C)CN(Cc2cc(Br)ccc2O)C1 (stereo not drawn)	inactive
CC1CCN(Cc2cc(Cl)ccc2O)CC1	inactive
CC(C)(C)OC(=O)N1CCN(Cc2cc(Br)ccc2O)CC1	inactive

SMILES	fluorescence ratio, higher = potentiation
Oc1ccc(Br)cc1CN1CCN(c2ccc(F)cc2F)CC1	inactive
Oc1ccc(Br)cc1CN1CCN(c2ccncc2)CC1	inactive
Oc1ccc(Br)cc1CN1CCN(c2ccccn2)CC1	inactive
COc1ccc(N2CCN(Cc3cc(F)ccc3O)CC2)cc1	inactive
Oc1ccc(F)cc1CN1CCN(CC2CCCO2)CC1 (stereo not drawn)	inactive
Oc1ccc(Cl)cc1CN1CCCC1	inactive
Oc1ccc(F)cc1CN1CCN(c2ncccn2)CC1	inactive
Oc1ccc(Br)cc1CN1CCOCC1	inactive
COc1ccc(N2CCN(Cc3cc(Br)ccc3O)CC2)cc1	inactive
Oc1ccc(Br)cc1CN1CCCC1	inactive
Oc1ccc(Cl)cc1CN1CCN(c2ncccn2)CC1	inactive
CC(C)(C)OC(=O)N1CCN(Cc2cc(F)ccc2O)CC1	inactive
Oc1ccc(Br)cc1CN1CCN(c2ncccn2)CC1	inactive
CCN(CC)Cc1cc(Br)ccc1O	inactive
CC(C)(C)OC(=O)N1CCN(Cc2cc(Cl)ccc2O)CC1	inactive
Oc1ccc(F)cc1CN1CCOCC1	inactive
CN1CCN(Cc2cc(F)ccc2O)CC1	inactive
CC1CC(C)CN(Cc2cc(Cl)ccc2O)C1 (stereo not drawn)	inactive
Oc1ccc(Br)cc1CN1CCC(N2CCOCC2)CC1	inactive
CCN(CC)Cc1cc(Cl)ccc1O	inactive
COCCN(C)Cc1cc(Br)ccc1O	inactive
CN1CCN(Cc2cc(Br)ccc2O)CC1	inactive
CC1CCN(Cc2cc(F)ccc2O)CC1	inactive
CCN(CC)Cc1cc(F)ccc1O	inactive
Oc1ccc(Br)cc1CN1CCN(CC2CCCO2)CC1 (stereo not drawn)	inactive
